Measured values: BigSolDB 2.1

NC(=O)c1cccnc1
solubility (mole fraction)
Conditions	in acetone	in ethanol	in ethyl acetate	in isobutanol	in isopropanol	in methanol	in methyl acetate	in n-butanol	in n-butyl acetate	in n-propanol
283.15 K	0.0116	0.0263	0.00797	0.0222	0.0187	0.0541	0.00929	0.0235	0.00936	0.0219
288.15 K	0.0134	0.032	0.00871	0.0248	0.023	0.0643	0.0101	0.0274	0.00955	0.0266
293.15 K	0.0164	0.0374	0.01	0.0292	0.0281	0.0748	0.0117	0.0315	0.01	0.0321
298.15 K	0.0191	0.0444	0.0112	0.0345	0.0328	0.0876	0.0135	0.0362	0.0107	0.0378
303.15 K	0.0234	0.0537	0.0129	0.0392	0.0396	0.102	0.0156	0.0416	0.0114	0.045
308.15 K	0.0286	0.0638	0.0145	0.0456	0.048	0.121	0.0179	0.0482	0.0124	0.0542
313.15 K	0.0342	0.0766	0.0163	0.0544	0.0573	0.141	0.0209	0.0566	0.0135	0.0647
318.15 K	0.0392	0.0912	0.0182	0.0637	0.0673	0.166	0.0235	0.0664	0.0153	0.0766
323.15 K	0.0472	0.11	0.0213	0.0754	0.0801	0.192	0.0272	0.0774	0.0181	0.0924
